Measured values reported in patent US20220079931A1, “ESTROGEN RECEPTOR PROTEIN DEGRADERS” (THE REGENTS OF THE UNIVERSITY OF MICHIGAN, priority 2019, published 2022).

Columns and labels:
ERα [1] = target: T1, ERα (Homo sapiens, UniProt P03372); test: Mechanism of ER degradation: pretreatment with VHL ligand, ER ligand or proteasome inhibitor, Western blotting in MCF-7 cells; assay type: cell-based; parameters: host or cells: MCF-7; conditions: 1 μM, alone
T1 sequence (P03372 1-595): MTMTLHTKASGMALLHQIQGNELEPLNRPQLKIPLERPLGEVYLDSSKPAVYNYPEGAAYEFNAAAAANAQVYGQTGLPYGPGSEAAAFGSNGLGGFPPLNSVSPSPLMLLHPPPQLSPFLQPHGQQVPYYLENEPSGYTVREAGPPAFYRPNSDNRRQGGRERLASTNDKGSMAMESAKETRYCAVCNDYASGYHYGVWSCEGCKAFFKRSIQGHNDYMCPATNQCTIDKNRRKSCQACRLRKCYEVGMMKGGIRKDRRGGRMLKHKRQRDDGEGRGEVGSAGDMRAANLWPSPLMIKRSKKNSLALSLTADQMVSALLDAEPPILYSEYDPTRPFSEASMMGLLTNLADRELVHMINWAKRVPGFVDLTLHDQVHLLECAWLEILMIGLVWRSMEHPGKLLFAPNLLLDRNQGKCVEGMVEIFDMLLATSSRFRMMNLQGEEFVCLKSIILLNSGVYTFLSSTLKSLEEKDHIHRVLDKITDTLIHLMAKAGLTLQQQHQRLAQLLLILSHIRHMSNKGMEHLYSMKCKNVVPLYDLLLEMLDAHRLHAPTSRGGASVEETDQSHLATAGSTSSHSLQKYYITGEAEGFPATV
Experimental: (§1) Then whole-cell lysates were analyzed by Western blotting.
as §1
Western Blot Analysis. […] Cells treated with indicated compounds were lysed in Radioimmunoprecipitation Assay Protein Lysis and Extraction Buffer (25 mmol/L Tris.HCl, pH 7.6, 150 mmol/L NaCl, 1% Nonidet P-40, 1% sodium deoxycholate, and 0.1% sodium dodecyl sulfate) containing proteinase inhibitor cocktail (Roche Diagnostics, Mannheim, Germany). After determination of protein concentration by BCA assay (Fisher Scientific, Pittsburgh, Pa.), equal amounts of total protein were electrophoresed through 10% SDS-polyacrylamide gels. The separated protein bands were transferred onto PVDF membranes (GE Healthcare Life Sciences, Marlborough, Mass.) and blotted against different antibodies, as indicated. The human estrogen receptor a antibodies (AB16460) were purchased from Abeam, Inc., Cambridge, Mass. The membranes were reblotted with horseradish peroxidase-conjugated anti-glyceraldehyde-3-phosphate dehydrogenase antibody (G9295) from Sigma-Aldrich Corporation, St. Louis, Mo. The blots were scanned and the band intensities were quantified using GelQuant.NET software as described in biochemlabsolutions.com. The relative mean intensity of target proteins was expressed after normalization to the intensity of glyceraldehyde-3-phosphate dehydrogenase bands from individual repeats.

[2] = background statement; cited from earlier work
MCF-7 cells = test: WST-8 cell proliferation assay in MCF-7 cells; assay type: cell-based, human; conditions: MCF-7 cells, WST-8, 4 days
Experimental: (§2) Cell Culture. Human breast cancer cell lines MCF-7 (ATCC® HTB-22™) and T47D (ATCC® HTB-133™) were purchased from the American Type Culture Collection (ATCC), Manassas, Va., and maintained and cultured in Dulbecco's Modified Eagle's medium (DMEM) containing 10% fetal bovine serum, 1 unit/ml of penicillin and 1 μg/ml of streptomycin. Cells with 3-8 passages after purchase were used in experiments as indicated.
Cell Growth Assay. Cells were seeded at 1500/well in 96 well plates overnight. One day after seeding, they were treated with indicated doses of compounds. The growth of the cells was evaluated by colorimetric WST-8 assay 4 days after the compound treatment following the instructions of the manufacturer, Cayman Chemical, Ann Arbor, Mich.
Fulvestrant achieves an Imax value of 43.8%. […] RAD1901, a previously reported SERD molecule^18, achieves an Imax value of 25.7%.

[3] = background statement; cited from earlier work; remark: listed apart in the source
ERα [4] = target: T1, ERα; test: ER degradation by Western blotting in MCF-7 cells; assay type: cell-based; parameters: host or cells: MCF-7; conditions: 30 nM
Experimental: FIG. 1 is an image showing the Western blotting analysis of ER protein in MCF-7 cells treated with Compounds of the Disclosure and control compounds. Cells were treated with different compounds for 4 h and whole cell lysates were then analyzed by Western blotting to examine the level of ER protein. GADPH protein was used for the loading control. The numbers below the panel represent the ERα/GADPH ratio normalized with the DMSO control at 100.
FIG. 2 is an image showing the Western blotting analysis of ER protein in the MCF-7 cells treated with indicated compounds at 1 nM, 10 nM and 100 nM. MCF-7 cells were treated with different compounds for 4 h and whole cell lysates were analyzed by Western blotting to examine the level of ER protein. GADPH protein was used for the loading control. The numbers below the panel represent the ERα/GADPH ratio normalized with the DMSO control at 100.
FIG. 7 is an image showing the ERα degradation dose-response Western blotting for compound 32 at 4 h in MCF-7 cells.
FIG. 9 is an image showing the time course of ERα degradation by Western blotting by compound 32 (30 nM) and fulvestrant (30 nM) in the MCF-7 cells.
as §2
Western Blot Analysis. Western blot analysis was performed essentially as described previously (Hu et al, 2015, PMID: 26358219). Cells treated with indicated compounds were lysed in Radioimmunoprecipitation Assay Protein Lysis and Extraction Buffer (25 mmol/L Tris.HCl, pH 7.6, 150 mmol/L NaCl, 1% Nonidet P-40, 1% sodium deoxycholate, and 0.1% sodium dodecyl sulfate) containing proteinase inhibitor cocktail (Roche Diagnostics, Mannheim, Germany). After determination of protein concentration by BCA assay (Fisher Scientific, Pittsburgh, Pa.), equal amounts of total protein were electrophoresed through 10% SDS-polyacrylamide gels. The separated protein bands were transferred onto PVDF membranes (GE Healthcare Life Sciences, Marlborough, Mass.) and blotted against different antibodies, as indicated. The human estrogen receptor a antibodies (AB16460) were purchased from Abeam, Inc., Cambridge, Mass. The membranes were reblotted with horseradish peroxidase-conjugated anti-glyceraldehyde-3-phosphate dehydrogenase antibody (G9295) from Sigma-Aldrich Corporation, St. Louis, Mo. The blots were scanned and the band intensities were quantified using GelQuant.NET software as described in biochemlabsolutions.com. The relative mean intensity of target proteins was expressed after normalization to the intensity of glyceraldehyde-3-phosphate dehydrogenase bands from individual repeats.

VHL-ElonginBC complex = target: T2, VHL-ElonginBC complex (Homo sapiens, UniProt P40337); test: Fluorescence-polarization (FP) competitive binding assay for VHL; conditions: VHL ligands; VHL-ElonginBC complex and fluorescent probe both 5 nM; read-out: FP Binding affinity IC50
T2 construct: His-TEV (His-tag with TEV protease site) (cleaved yes); made in house; host or cells: E. coli BL21(DE3)
Experimental: Cloning and Purification of VHL-ElonginBC complex. The DNA sequence of VHL (coding for residues 54-213) was constructed by PCR and inserted into a His-TEV expression vector^58 using ligation-independent cloning. The DNA sequences of Elongin B (encoding residues 1-118) and Elongin C (encoding residues 1-96) were constmcted by PCR and inserted into pCDFDuet 1 using Gibson assembly.^59 BL21(DE3) cells were transformed simultaneously with both plasmids and grown in Terrific Broth at 37° C. until an OD600 of 1.2. The cells were induced overnight with 0.4 mM IPTG at 24° C. Pelleted cells were freeze-thawed then resuspended in 20 mM Tris HCl pH7.0, 200 mM NaCl and 0.1% β-mercaptoethanol (bME) containing protease inhibitors. The cell suspension was lysed by sonication and debris removed via centrifugation. The supernatant was incubated at 4° C. for 1 hr with Ni-NTA (Qiagen) pre-washed in 20 mM Tris-HCl pH 7.0, 200 mM NaCl and 10 mM Imidazole. The protein complex was eluted in 20 mM Tris-HCl pH 7.0, 200 mM NaCl and 300 mM Imidazole, dialyzed into 20 mM Tris-HCl pH 7.0, 150 mM NaCl, and 0.01% bME and incubated with TEV protease overnight at 4° C. The protein sample was reapplied to the Ni-NTA column to remove the His-tag. The flow through containing the VHL complex was diluted to 75 mM NaCl and applied to a HiTrap Q column (GE Healthcare). The sample was eluted with a salt gradient (0.075-1 M NaCl), concentrated and further purified on a Superdex S75 column (GE Healthcare) pre-equilibrated with 20 mM Bis-Tris 7.0, 150 mM NaCl and 1 mM DTT. Samples were aliquoted and stored at −80° C.
Binding Affinities of VHL ligands to VHL. A fluorescence-polarization (FP) competitive assay was established using VHL-ElonginBC complex and a fluorescently tagged probe (SI). The IC50 and Ki values of VHL ligands were determined in competitive binding experiments. Mixtures of 5 μL of compounds in DMSO and 95 μL of preincubated protein/tracer complex solution were added into assay plates which were incubated at rt for 60 min with gentle shaking. Final concentrations of VHL-ElonginBC complex and fluorescent probe were both 5 nM. Negative controls containing protein/probe complex only (equivalent to 0% inhibition) and positive controls containing only free probes (equivalent to 100% inhibition) were included in each assay plate. FP values in millipolarization units (mP) were measured using the Infinite M-1000 plate reader (Tecan U.S., Research Triangle Park, N.C.) in Microfluor 1 96-well, black, round-bottom plates (Thermo Scientific, Waltham, Mass.) at an excitation wavelength of 485 nm and an emission wavelength of 530 nm. IC50 values were determined by nonlinear regression fitting of the competition curves. Ki values of competitive inhibitors were obtained directly by nonlinear regression fitting, based upon the KD values of the probe and concentrations of the protein and probe in the competitive assays. All the FP competitive experiments were performed in duplicate in three independent experiments.

SMILES | maximum inhibition (Imax) (MCF-7 cells) [%] | IC50 (VHL-ElonginBC complex) [µM] | other results
CC(C)C[C@H](NC(=O)[C@H](CCc1ccccc1)NC(=O)CN1CCOCC1)C(=O)N[C@@H](Cc1ccccc1)C(=O)N[C@@H](CC(C)C)C(=O)[C@@]1(C)CO1 [carfilzomib, reference compound] | – | – | effect alone on ER protein levels (ERα [1]): no effect
C[C@]12CC[C@@H]3c4ccc(O)cc4C[C@@H](CCCCCCCCC[S+]([O-])CCCC(F)(F)C(F)(F)F)[C@H]3[C@@H]1CC[C@@H]2O (some centres unmarked) [fulvestrant] | 43.8 | – | oral bioavailability [2]: not orally bioavailable; solubility [3]: poor solubility; reduction of ER protein level at 1 h (ERα [4]; 1 h treatment): only a modest effect; maximum ER degradation in time course (ERα [4]; after a 24 h treatment): approximately 90%
O=C(c1ccc(OCCN2CCCCC2)cc1)c1c(-c2ccc(O)cc2)sc2cc(O)ccc12 [raloxifene] | 34.0 | – | –
CC(=O)N[C@H](C(=O)N1C[C@H](O)C[C@H]1C(=O)N[C@@H](C)c1ccc(Cl)cc1)C(C)(C)C [43a, (2S,4R)-1-((S)-2-acetamido-3,3-dimethylbutanoyl)-N—((S)-1-(4-chlorophenyl)ethyl)-4-hydroxypyrrolidine-2-carboxamide] | – | 7.87 ± 0.642 | –
CC(=O)N[C@H](C(=O)N1C[C@H](O)C[C@H]1C(=O)N[C@@H](C)c1ccc(C2CC2)cc1)C(C)(C)C [46a, (2S,4R)-1-((S)-2-acetamido-3,3-dimethylbutanoyl)-N—((S)-1-(4-cyclopropylphenyl)ethyl)-4-hydroxypyrrolidine-2-carboxamide] | – | 6.11 ± 0.82 | –
CCNCCc1ccc(CN(CC)c2cc(OC)ccc2[C@@H]2CCc3cc(O)ccc3C2)cc1 [RAD1901] | 25.7 | – | –
C#Cc1ccc([C@H](C)NC(=O)[C@@H]2C[C@@H](O)CN2C(=O)[C@@H](NC(C)=O)C(C)(C)C)cc1 [44a, (2S,4R)-1-((S)-2-acetamido-3,3-dimethylbutanoyl)-N—((S)-1-(4-ethynylphenyl)ethyl)-4-hydroxypyrrolidine-2-carboxamide] | – | 0.879 ± 0.097 | –
